Data as given in patent publication US8618074B2, “GPCR enhanced neuroprotection to treat brain injury” (Board of Regents of the University of Texas System, priority 2007, dated 2013).

How the values were obtained:
astrocytes [1] = test: MCB (reduced GSH) fluorescence of cortical astrocytes after RB-induced clot/ischemia; assay type: in vivo, mouse; conditions: 340 minutes after the initial clot; tail vein injection with RB
Experimental: In another series of experiments, a transgenic mouse expressing green fluorescent protein (GFP) in astrocytes was prepared for imaging. In this mouse, the cortical cells were labeled with monochlorobimane (MCB), a fluorescent indicator of reduced GSH. After obtaining an image of astrocytes (GFP) and MCB fluorescence, the mouse was tail vein injected with Rose Bengal (RB), FITC-dextran and the P2Y-R agonist 2-MeSADP. A clot was induced with 543 nm irradiation in a region of the brain. Breakdown of the blood brain barrier in the region near this clot permitted secretion of 2-MeSADP in the nearby astrocytes. MCB fluorescence was maintained for over an hour in all of the cells in the field of view. […] The persistence of GSH in this area indicates an enhanced region of protection against oxidative stress caused by ischemia. Lineplots of MCB fluorescence of the astrocytes is depicted in FIG. 7. Cells a1-a3 are within the protected zone and cells a4-a6 are outside this area.

astrocytes [2] = test: Single cell astrocyte edema (swelling) after RB-induced photothrombotic event; assay type: in vivo, mouse; conditions: tail-vein injection
Source text: A critical role for mitochondrial metabolism is also supported by new data obtained from a transgenic mouse model expressing a mitochondrial targeted DNA restriction enzyme, EcoR1, under the control of doxycycline (tTA/mtEcoR1, courtesy of Dr. Chris Walters, UTHSCSA). […] In addition to optically imaging multiple physiological parameters in single cells (e.g. mitochondrial membrane potentials and Ca2+ levels in real time), we have successfully imaged single cells edema formation in response to a Rose Bengal (RB)-induced photothrombotic event in a single blood vessel. Our preliminary measurements indicate that astrocyte volume increases over 6-fold during edema formation.

astrocytes [3] = test: Mitochondrial membrane potential ΔΨ estimated as log(Fmito/Fcyto) with TMRE; assay type: cell-based, mouse; conditions: treating astrocytes for 10 minutes
Experimental: Mitochondrial membrane potentials (ΔΨs) was measured as previously described using the potential sensitive dye tetra-methyl rhodamine ethyl ester (TMRE, Molecular Probes, #T-669) (Lin and Lechleiter, 2002). Images were acquired with a 60× oil 1.4 NA objective on a Nikon PCM2000 confocal microscope custom adapted for two-photon imaging. A Ti-sapphire Coherent Mira 900 Laser pumped with a 5W Verdi laser (Coherent Inc., Santa Clara, Calif.) was used to excite TMRE at 800 nm A neutral-density filter wheel was used to attenuate the laser intensity so that no detectable photobleaching of TMRE was observed.
We confirmed this by directly measuring the effect of ATP, ATP plus XeC and IP3-BM treatments on ΔΨ. Cultured cells were labeled with TMRE (200 nM) and imaged with a two-photon microscope as described above. ΔΨ was estimated as the log (Fmito/Fcyto) where Fmito is the peak fluorescent intensity observed in single mitochondria (Farkas et al., 1989; Lin et al., 2005). The mean values of individual mitochondria from a single cell were used for the mitochondrial potential estimate. Fcyto represents the lowest value of TMRE fluorescence observed within the boundaries of the same cell. […] FIG. 5E depicts a histogram plot showing average mitochondrial membrane potentials before and after treatment. The mean resting ΔΨs for untreated (Buffer), ATP-treated, ATP plus XeC-treated and IP3-BM-treated were 1.84+0.01 (n=78 mitochondria, pooled from 2 experiments), 1.84+0.01 (n=85 mitochondria), 1.85+0.01 (n=80 mitochondria) and 1.86+0.01 (n=48 mitochondria), respectively. Astrocyte cultures were then exposed to their respective treatments and the same fields of mitochondria were imaged 10 minutes later.

astrocytes [4] = test: Confocal Ca2+ imaging of astrocytes on bath application of ATP; assay type: cell-based, mouse; conditions: bath application of ATP 1 μM; cultured young and old astrocytes
Source text: The next physiological response that we investigated during aging was intracellular Ca^2+ signaling. Metabotropic purinergic receptors (P2Y-Rs) are well known to generate robust Ca^2+ signals in astrocytes. Our initial bias was that we would observe reduced Ca^2+ responses in astrocytes cultured from old mice. […] Ca^2+ measurements were made using standard confocal imaging of Ca^2+ sensitive fluorescent dyes, which loaded equally well for both young and old astrocytes. […] The first surprise finding was that a higher percentage of old astrocytes (more than half) responded to exogenously applied ATP. […] However, we can account for these observed enhancements to cytosolic Ca^2+ signaling in old astrocytes by a reduced ability of mitochondria to sequester Ca^2+ during aging. […] The ability of mitochondria to sequester Ca^2+, and thereby modulate IP3-induced Ca^2+ release, is critically dependent on the mitochondrial membrane potential (ΔΨ) and close proximity of mitochondria to the Ca^2+ release site. This proximity allows mitochondria to sense greater Ca^2+ concentrations than those present in the bulk cytosolic compartment. Consequently, a reduction in ΔΨ with age will reduce mitochondrial Ca^2+ buffering, thereby leading to increased cytosolic Ca^2+ release and faster Ca^2+ dynamics.

astrocytes [5] = test: Fura-2 two-photon imaging of intracellular Ca2+ response; assay type: cell-based, mouse
Experimental: Ca^2+ activity was imaged as previously described (Camacho and Lechleiter, 1995). In brief, cultured astrocytes were incubated with the fura-2 am (Molecular Probes, #F-1221) 30 min prior to the experiment. Images were acquired with two-photon excitation (800 nm) at the rate of 1.5 images/ sec. […] Images were analyzed with Image J and ANALYZE® software (the Mayo Foundation, Rochester, MN). The D-enantiomer of the 1P3-BM ester was synthesized by Stuart Conway in the Cambridge University Chemical Laboratory by using a modification of the protocol of Tsien and co-workers (Li et al., 1997).
The primary response of glial cells to extracellular ATP is an increase in intracellular Ca^2+. To investigate whether the protective effect of ATP could be initiated by a Ca^2+ response, we loaded cultures of astrocytes with the Ca^2+ indicator dye Fura-2 AM (10 μM for 30 minutes). Fura-2 fluorescence was imaged with 2-photon microscopy using 800 nm excitation. At this wavelength, fluorescence is primarily due to the Ca^2+ free form of fura-2. […] When young astrocyte cultures were exposed to extracellular ATP (10 μM for 10 minutes), the peak intracellular Ca^2+ (−ΔF/F) was increased to 0.46±0.02 (n=25, pooled from 2 experiments). […] We tested whether the ATP-induced Ca^2+ response could be attributed to the metabotropic pathway, since IP3 mediated Ca^2+ release can stimulate mitochondrial energy production as well as sensitize mitochondria to apoptotic stimuli. Astrocytes cultured from old mice were pretreated with Xestospongin C (XeC, 25 μM for 30 minutes), which is a competitive inhibitor of IP3 binding to the IP3R. […] This is consistent with other reports showing that activation of the ionotropic P2X receptor activation also increases Ca^2+ in cultured astrocytes. To determine whether the metabotropic pathway was involved with the protective effect of extracellular ATP, we subsequently exposed the XeC/ATP treated astrocytes to oxidative stress. As described above, the perfusate contained t-BuOOH (100 μM) and TMRE (200 nM) to monitor ΔΨ. Under these experimental conditions, the average time until ΔΨ collapse was reduced to 5.48±0.22 (n=23, pooled from 2 experiments) in young astrocytes (FIG. 1C) and to 4.02±0.18 h (n=19, pooled from 2 experiments) in old astrocytes (FIG. 2C). […] We concluded that the protective effect of ATP on astrocytes was mediated by P2Y-receptors (P2Y-Rs).

SMILES | MCB fluorescence (GSH) of astrocytes near the initial clot zone (astrocytes [1]) | astrocyte swelling (edema) (astrocytes [2]) | time to apparently complete reversal of astrocyte swelling after the initial clot (astrocytes [2]) [h] | ΔΨ (log Fmito/Fcyto) after treatment (astrocytes [3]) | Ca2+ oscillations (astrocytes [4]) | peak Ca2+ amplitude (−ΔF/F) (astrocytes [5]; old astrocytes, ATP 10 μM) | peak intracellular Ca2+ (−ΔF/F) (astrocytes [5]; young astrocytes, ATP 10 μM for 10 minutes)
CSc1nc(N)c2ncn([C@@H]3O[C@H](COP(=O)(O)OP(=O)(O)O)[C@@H](O)[C@H]3O)c2n1 [2-MeSADP] | essentially maintained | significantly reduced swelling | ≤ 8 | – | – | – | –
Nc1ncnc2c1ncn2[C@@H]1O[C@H](COP(=O)(O)OP(=O)(O)OP(=O)(O)O)[C@@H](O)[C@H]1O [ATP] | – | – | – | 1.98±0.01 | stimulated Ca^2+ oscillations | 0.46±0.04 | 0.46±0.02
